Experimental data reported in publication PMC6328587 (Nature Communications, 2019).
Read-outs that look alike come from different tables or passages of the source.

What was measured:
[1] = test system: JNK1; assay: JNK1 degradation, western blot in MDA-MB-231 cells; format: cell-based, human; conditions: 0.025-2.5 µM
Procedure: (§1) […] once with ice-cold PBS (1 × ), followed by lysis in buffer containing 25 mM Tris [pH 7.5], 0.25% sodium deoxycholate, 1% Triton X-100, supplemented with 1X protease inhibitor cocktail (Roche), and phosphatase inhibitors (10 mM NaF, 1 mM Na3VO4, and 20 mM β-glycerophosphate), unless otherwise noted. Lysates were spun at 14,000 × g for 10 min at 4 °C and supernatant was evaluated for protein content using a Pierce BCA Protein Assay (ThermoFisher Scientific). In all experiments, 25–50 μg of protein was loaded onto 10% SDS-PAGE gels or 4–20% Criterion TGX precast gradient gels (Bio-Rad), transferred to nitrocellulose membranes, and probed with the specified antibodies overnight at 4 °C in 1X TBS-Tween (Tris-buffered saline plus 0.02% Tween 20) containing 5% non-fat milk. Immunoblots were visualized using a Bio-Rad ChemiDoc imaging instrument and subsequently processed and quantified using the accompanying Bio-Rad ImageLab software. See Supplementary Figure 8 for uncropped scans of western blots shown in the main text figures.
(§2) Supplementary Figure 4 cont.
(§3) Supplementary Figure 4. Characterization of M APK fam ily degradation selectivity (related to Figures 1-2). (a) p38 M APK fam ily m em bers (α, β, δ, γ) were aligned using the T-Coffee multiple sequence alignm ent server. […] Note: JNK1 and JNK2 are expressed as two alternatively-spliced form s. […]

[2] = test system: JNK2; assay: JNK2 degradation, western blot in MDA-MB-231 cells; format: cell-based, human; conditions: 0.025-2.5 µM
Procedure: as §1, §2, §3

[3] = target: T1, ERK1 (Homo sapiens, UniProt P27361); assay: ERK1 degradation, western blot in MDA-MB-231 cells; format: cell-based; conditions: 0.025-2.5 µM
T1 construct: endogenous in cells; host or cells: MDA-MB-231
T1 sequence (P27361 whole entry): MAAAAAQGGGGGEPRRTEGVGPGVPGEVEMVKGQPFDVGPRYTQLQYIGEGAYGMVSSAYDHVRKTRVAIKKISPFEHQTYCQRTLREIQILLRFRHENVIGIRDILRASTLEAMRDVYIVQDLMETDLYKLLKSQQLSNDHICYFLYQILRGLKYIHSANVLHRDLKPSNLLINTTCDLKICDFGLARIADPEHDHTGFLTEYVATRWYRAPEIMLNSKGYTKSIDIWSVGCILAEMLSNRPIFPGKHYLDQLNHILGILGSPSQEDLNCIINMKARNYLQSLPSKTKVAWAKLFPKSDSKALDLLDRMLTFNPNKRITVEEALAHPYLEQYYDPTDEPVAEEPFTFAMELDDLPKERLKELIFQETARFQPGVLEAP
Procedure: as §1, §2, §3

[4] = target: T2, p38δ:PROTAC:VHL (Homo sapiens, UniProt O15264+P40337); assay: SPR ternary binding, equimolar p38δ:PROTAC injected onto immobilized VHL; conditions: for p38δ:PROTAC:VHL t1/2: ternary complex half-life
T2 construct: encoding a region spanning amino acids 1–365; His6 (N); made in house; host or cells: E. coli BL21-CodonPlus(DE3)-RIPL (p38δ); E. coli BL21(DE3) (GST-VBC)
T2 sequence (O15264 whole entry, the tested form may be a part): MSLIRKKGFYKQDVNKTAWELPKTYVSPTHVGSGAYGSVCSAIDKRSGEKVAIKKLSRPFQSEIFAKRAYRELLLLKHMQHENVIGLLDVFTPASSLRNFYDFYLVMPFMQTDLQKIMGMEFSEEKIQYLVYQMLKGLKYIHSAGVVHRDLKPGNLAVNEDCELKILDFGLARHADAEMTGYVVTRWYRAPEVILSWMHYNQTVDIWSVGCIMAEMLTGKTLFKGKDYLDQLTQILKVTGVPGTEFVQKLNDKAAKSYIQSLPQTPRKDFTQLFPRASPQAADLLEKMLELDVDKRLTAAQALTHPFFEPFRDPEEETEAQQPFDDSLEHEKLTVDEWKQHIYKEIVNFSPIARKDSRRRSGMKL
T2 sequence (P40337 whole entry, the tested form may be a part): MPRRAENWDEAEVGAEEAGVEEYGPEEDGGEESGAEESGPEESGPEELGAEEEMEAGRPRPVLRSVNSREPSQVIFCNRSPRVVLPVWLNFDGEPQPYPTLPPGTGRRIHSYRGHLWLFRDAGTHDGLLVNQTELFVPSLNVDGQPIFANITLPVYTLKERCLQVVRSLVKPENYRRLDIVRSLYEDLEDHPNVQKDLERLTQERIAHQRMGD
T2 sequence (Q15370 whole entry partner, the tested form may be a part): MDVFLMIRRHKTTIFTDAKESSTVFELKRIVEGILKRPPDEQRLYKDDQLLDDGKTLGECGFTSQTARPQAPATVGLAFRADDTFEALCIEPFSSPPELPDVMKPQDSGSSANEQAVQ
T2 sequence (Q15369 whole entry partner, the tested form may be a part): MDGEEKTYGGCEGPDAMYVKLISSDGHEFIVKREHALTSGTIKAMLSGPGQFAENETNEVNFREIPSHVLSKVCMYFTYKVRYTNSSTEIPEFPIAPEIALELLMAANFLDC
Procedure: SPR experiments were conducted on a Biacore 3000 instrument (GE Healthcare) at room temperature. GST antibody was immobilized through direct amination onto a carboxymethylated dextran surface (CM5) and GST-VBC was captured on the CM5 surface. This prepared surface was equilibrated over 3 h in running buffer (10 mM HEPES buffer pH 7.4, 150 mM NaCl, 0.4 mg mL^−1 BSA, 0.005% P20, 2% DMSO). All compounds were prepared in 100% DMSO stock plates with a top concentration of 500 µM in a 3× serial dilution. Compounds were transferred from the stock plate to the assay plate and diluted into running buffer without DMSO. Equimolar concentration of target protein was added to corresponding compound wells. All compounds were run as a 12-point concentration series with a final assay top concentration of 50 µM to measure p38δ:PROTAC and VHL:PROTAC binding and top concentration of 5 µM to measure p38δ:PROTAC:VHL binding. All compounds were injected for 60 s and allowed to dissociate for 300 s. Data analysis was performed in Scrubber 2 (BioLogic Software). Blanks from reference flow cell containing immobilized GST-VBC were subtracted to correct for noise and data were solvent-corrected against a standard DMSO curve. All reported Kd values represent an average of at least two replicates and were obtained by fitting to a minimum of five concentrations using a 1:1 fitting algorithm.

[5] = target: T3, p38α:PROTAC:VHL ternary complex (Homo sapiens, UniProt P40337+Q16539); assay: In vitro ternary complex pull-down, GST-VBC bait, purified p38α; format: binding; conditions: all concentrations tested
T3 construct: The plasmid contains an N-terminal His6 tag and encodes a region spanning amino acids 2–360 of the human p38α kinase; made in house; host or cells: E. coli BL21-CodonPlus(DE3)-RIPL (p38α); E. coli BL21(DE3) (GST-VBC)
T3 sequence (Q16539 2-360 limits assumed): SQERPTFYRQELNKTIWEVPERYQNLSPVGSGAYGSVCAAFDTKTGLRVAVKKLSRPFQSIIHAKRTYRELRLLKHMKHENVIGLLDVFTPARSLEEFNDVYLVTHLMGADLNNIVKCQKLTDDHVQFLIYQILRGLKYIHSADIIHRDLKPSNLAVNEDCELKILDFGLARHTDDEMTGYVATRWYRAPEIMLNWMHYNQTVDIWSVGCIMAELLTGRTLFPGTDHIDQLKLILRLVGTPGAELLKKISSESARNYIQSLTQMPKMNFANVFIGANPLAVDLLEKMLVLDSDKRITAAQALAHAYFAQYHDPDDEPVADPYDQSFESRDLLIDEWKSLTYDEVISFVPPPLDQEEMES
T3 sequence (P40337 whole entry, the tested form may be a part): as the sequence (P40337 whole entry, the tested form may be a part) above
T3 sequence (Q15370 whole entry partner, the tested form may be a part): as the sequence (Q15370 whole entry partner, the tested form may be a part) above
T3 sequence (Q15369 whole entry partner, the tested form may be a part): as the sequence (Q15369 whole entry partner, the tested form may be a part) above
Procedure: (§4) Glutathione Sepharose 4B (Glutathione-conjugated beads in a slurry containing 20% ethanol) were washed twice with 1X wash buffer (50 mM HEPES pH 7.5, 150 mM NaCl, 1 mM DTT, 0.01% NP40, 5 mM MgCl2, 10% Glycerol) and then blocked for 1 h at room temperature with 10% bovine serum albumin (BSA) in wash buffer. The beads were then washed again three times with wash buffer and then purified GST-VBC (stable form of VHL complexed with EloB/EloC, described above) was immobilized for 1 h at 4 °C at 3.6 pmole µL^–1 of beads. The beads were then washed three times with wash buffer, resuspended, divided into two equal volumes, and p38α or p38δ protein was added. The bead:p38 mixture was then aliquoted to separate tubes and PROTAC was added at the indicated concentration (PROTACs were intermediately diluted in 10% DMSO and 0.25% CHAPS). This mixture was incubated at 4 °C for 2 h. The beads were washed three times with 10 column volumes of wash buffer and then eluted with SDS loading buffer at 75 °C for 10 min.

[6] = target: T4, endogenous p38δ (Homo sapiens, UniProt O15264+P40337); assay: Ternary complex pull-down from MDA-MB-231 whole-cell lysate; format: binding
T4 construct: endogenous in cells; host or cells: MDA-MB-231 whole-cell lysate (p38δ); GST-VBC bait made in E. coli
T4 sequence (O15264 whole entry): as the sequence (O15264 whole entry, the tested form may be a part) above
T4 sequence (P40337 whole entry): as the sequence (P40337 whole entry, the tested form may be a part) above
T4 sequence (Q15370 whole entry partner): as the sequence (Q15370 whole entry partner, the tested form may be a part) above
T4 sequence (Q15369 whole entry partner): as the sequence (Q15369 whole entry partner, the tested form may be a part) above
Procedure: as §4
For experiments in which the input substrate is a WCL (Fig. 4b), the sample was prepared as follows. Five 150 mm dishes of confluent MDA-MB-231 cells were washed with 1X PBS, pH 7.4, and then dissociated using enzyme-free PBS-based cell dissociation buffer (ThermoFisher Scientific) for 10 min at 37 °C. […]

[7] = SPR ternary, Replicate 2, read-out: koff
[8] = SPR, ternary, VHL immobilized, read-out: p38δ:PROTAC:VHL koff

ERK1 degradation [3] | ternary affinity weaker than the SJFδ-induced complex ([4]; SPR) | koff ([4]; SPR ternary, Replicate 1, read-out: koff) | koff [4, 7] | p38δ:PROTAC:VHL t1/2 ([4]; SPR) | kon ([4]; SPR, ternary, VHL immobilized) | koff [4, 8] | enrichment of purified p38α on GST-VBC bait [5] | leftward shift of ternary affinity from the VHL:PROTAC binary affinity ([4]; SPR) | Kd ([4]; SPR, Replicate 1) | Kd ([4]; SPR, Replicate 2) | Compound | JNK1 degradation [1] | JNK2 degradation [2] | enrichment of endogenous p38δ on GST-VBC bait [6]
neither PROTAC degrades | ~ 3 fold | 0.083 s⁻¹ | 0.082 s⁻¹ | 8 s | 70100 M⁻¹ s⁻¹ | 0.072 s⁻¹ | substantial enrichment | – | – | – | COc1cc2c(Oc3ccc(NC(=O)C4(C(=O)Nc5ccc(F)cc5)CC4)cc3F)ccnc2cc1OCCCCOCCCCOCC(=O)N[C@H](C(=O)N1C[C@H](O)C[C@H]1C(=O)NCc1ccc(-c2scnc2C)cc1)C(C)(C)C [SJFα] | neither PROTAC degrades | neither PROTAC degrades | stable ternary complex formation was greatly reduced
neither PROTAC degrades | – | – | 0.017 s⁻¹ | 38 s | 39600 M⁻¹ s⁻¹ | 0.018 s⁻¹ | no detectable enrichment | ~ 8 fold | 358 nM | 514 nM | COc1cc2c(Oc3ccc(NC(=O)C4(C(=O)Nc5ccc(F)cc5)CC4)cc3F)ccnc2cc1OCCOCCOCCOc1cc(-c2scnc2C)ccc1CNC(=O)[C@@H]1C[C@@H](O)CN1C(=O)[C@H](C(C)C)N1Cc2ccccc2C1=O [SJFδ] | neither PROTAC degrades | neither PROTAC degrades | strongly enriches for endogenous p38δ
